# System: microbes (bacteria, fungi, and viruses)
# Experiment: testing of methylene chloride as microbicidal agent
# Assay type: cell-based
# Conditions: in liquid form, prior to evaporation
compound,measurement,value
ClCCl [methylene chloride],microbicidal activity on contact,"kill microbes (bacteria, fungi, and viruses) on contact"
